# Reference: patent US11191769B2, “Fused thiophene compounds” (BioTheryX, Inc., priority 2018, dated 2021)
# Tests used:
# Type in all cases: cell-based
# IL-2 = IL-2 fold-change assay, anti-CD3 stimulated PBMCs, Mesoscale; settings: PBMC, PBMCs on anti-human CD3 (OKT3) coated plates, 24 h, fold difference from the DMSO control
# Experimental: For the IL-2 analysis, 96 well plates were precoated with 1 μg/mL anti-human CD3 antibody (OKT3, eBioscience Inc., San Diego, Calif.). After washing with PBS, the indicated compound was added (50 μL/well) followed by PBMCs diluted at 3-4 million cells/mL (150 μL/well). Plates were incubated for 24 h and the supernatants collected for Mesoscale IL-2 analysis. IL-2 activity is measured as fold difference from the DMSO control.
# (§1) In each of Tables 5-7, the % inhibition values are reported as “A”, “B”, “C”, or “D”. “A” represents a % inhibition value of less than 50% (value <50%). “B” represents a % inhibition value of equal to or more than 50% and less than 70% (50%≤value<70%). “C” represents a % inhibition value of equal to or more than 70% and less than 90% (70%≤value<90%). “D” represents a % inhibition value of equal or more than 90% (value≥90%). In Table 8, the fold-change values are reported as “A”, “B”, “C”, or “D”. “A” represents a fold-change value of equal to or less than 1 (value≤1). “B” represents a fold-change value of more than 1 and equal to or less than 2 (1<value≤2). “C” represents a fold-change value of more than 2 and equal to or less than 3 (2<value≤3). “D” represents a fold-change value of more than 3 (value>3).
# IL-6 = IL-6 inhibition assay, LPS-induced PBMCs or CD14+ monocytes, Meso Scale; settings: 1 h pretreatment, 100 ng/mL LPS 18-24 h, supernatant
# Experimental: (§2) Either frozen primary blood mononuclear cells (PBMCs) or frozen CD14+ mobilized peripheral blood monocytes were purchased from AllCells (PB003F, Normal Peripheral Blood MNC (Alameda, Calif.)). Cells were quick thawed, washed 1-time with RPMI-1640 (10% FBS/1% Pen-Strep) and plated in 96 well plates at 200,000 cells per well. Cells were pretreated with DMSO only or with the indicated compound for 1 h and then induced with 100 ng/mL lipopolysaccharide (LPS) for 18-24 h. The supernatant was analyzed for IL-1β, IL-6, and TNFα, using Meso Scale assay according to manufacturer's protocol. The negative control wells were treated with DMSO.
# as §1
# MOLM-13 cells = assay: MOLM-13 cell viability assay (CellTiter-Glo); settings: Homo sapiens, MOLM-13, 72 h, 3 days, % of DMSO control
# Experimental: MOLM-13 cells were cultured in RPMI 1640 media supplemented with 10% fetal bovine serum, streptomycin and penicillin, and were plated in white walled 96-well plates at 2500 cells/well. Cells were incubated in DMSO (control) or the indicated compound for 3 days at 37° C. and 5% CO2. Following the incubation period, 100 μL of CellTiterGlow (CTG) reagent (CellTiter-Glo® Luminescent Cell Viability Assay, Promega (Madison, Wis.)) was added to each well. Following a 10 minutes incubation with shaking, luminescence was measured using the EnVision Multimode plate reader.
# The MOLM-13 cell viability values as % DMSO are reported as “A”, “B”, “C”, or “D”. “A” represents a % viability value of less than 25% (value<25%). “B” represents a % viability value of equal to or more than 25% and less than 50% (25%≤value<50%). “C” represents a % viability value of equal to or more than 50% and less than 75% (50%≤value<75%). “D” represents a % viability value of equal or more than 75% (value≥75%).
# CK1α = target: T1, CK1α (Homo sapiens, UniProt P48729+Q96SW2); assay: CK1α degradation assay (Western blot, MV-4-11 cells); settings: MV4-11, 6-8 hours
# T1 construct: Whole cell extracts were prepared using RIPA buffer; endogenous in cells; host or cells: MV-4-11
# Experimental: (§3) MV-4-11 cells were grown in RPMI 1640 media supplemented with 10% fetal bovine serum, streptomycin and penicillin.
# (§4) Cells were cultured at approximately 10^6 cells per mL and incubated in DMSO or the indicated compound for 6-8 hours. Whole cell extracts were prepared using RIPA buffer according to manufacturer's protocol (Pierce). Briefly, 3×10^6 cells were washed once in PBS, the cell pellets were resuspended in RIPA buffer and allowed to incubate for 15 minutes on ice. Cells debris was removed by centrifugation and the cleared whole cell lysates were transferred to new tubes for further analysis.
# (§5) For Western blot analysis, whole cell protein extracts were separated on 4-12% SDS-polyacrylamide gels, transferred to nitrocellulose and probed with the indicated primary antibodies. Membranes were subsequently washed and probed with the appropriate IRDye secondary antibodies (LI-COR). The signal was detected using the Odyssey Imaging System (LI-COR).
# (§6) The following antibodies were used in these studies: Anti-eRF3/GSPT1: Abcam, ab126090 (Cambridge, Mass.); Anti-Ikaros: Abcam, ab191394 (Cambridge, Mass.); Anti-CK1α: Abcam, ab108296 (Cambridge, Mass.); β-actin (8H10D10) mouse monoclonal antibody: Cell Signaling Technology, #3700 (Danvers, Mass.); IRDye 680RD Goat anti-rabbit antibody: LI-COR, 926-68071 (Lincoln, Nebr.); IRDye 800CW Goat anti-mouse antibody: LI-COR, 926-32210 (Lincoln, Nebr.).
# (§7) In each of Tables 1-4, the % degradation values are reported as “A”, “B”, “C”, or “D”. “A” represents a % degradation value of less than 25% (value<25%). “B” represents a % degradation value of equal to or more than 25% and less than 50% (25%≤value<50%). “C” represents a % degradation value of equal to or more than 50% and less than 75% (50%≤value <75%). “D” represents a % degradation value of equal to or more than 75% (value≥75%).
# IL-1β = IL-1β inhibition assay, LPS-induced PBMCs or CD14+ monocytes, Meso Scale; settings: 1 h pretreatment, 100 ng/mL LPS 18-24 h, supernatant, read-out: I1-1β % Inhibition at 10 μM
# Experimental: as §2, §1
# TNFα = assay: TNF-α inhibition assay, LPS-induced PBMCs or CD14+ monocytes, Meso Scale; settings: 1 h pretreatment, 100 ng/mL LPS 18-24 h, supernatant
# Experimental: as §2, §1
# IKAROS = target: T2, IKAROS (Homo sapiens, UniProt Q13422+Q96SW2); assay: IKAROS degradation assay (Western blot, MV-4-11 cells); settings: 6-8 hours; for IKAROS % degradation at 1 µM: MV4-11, 1 μM
# T2 construct: endogenous in cells; host or cells: MV-4-11
# Experimental: as §3, §4, §5, §6, §7
# GSPT1 = target: T3, GSPT1 (Homo sapiens, UniProt P15170+Q96SW2); assay: GSPT1 degradation assay (Western blot, MV-4-11 cells); settings: 6-8 hours
# T3 construct: Whole cell extracts were prepared using RIPA buffer; endogenous in cells; host or cells: MV-4-11
# Experimental: as §3, §4, §5, §6, §7
# T2 sequence (Q13422 whole entry): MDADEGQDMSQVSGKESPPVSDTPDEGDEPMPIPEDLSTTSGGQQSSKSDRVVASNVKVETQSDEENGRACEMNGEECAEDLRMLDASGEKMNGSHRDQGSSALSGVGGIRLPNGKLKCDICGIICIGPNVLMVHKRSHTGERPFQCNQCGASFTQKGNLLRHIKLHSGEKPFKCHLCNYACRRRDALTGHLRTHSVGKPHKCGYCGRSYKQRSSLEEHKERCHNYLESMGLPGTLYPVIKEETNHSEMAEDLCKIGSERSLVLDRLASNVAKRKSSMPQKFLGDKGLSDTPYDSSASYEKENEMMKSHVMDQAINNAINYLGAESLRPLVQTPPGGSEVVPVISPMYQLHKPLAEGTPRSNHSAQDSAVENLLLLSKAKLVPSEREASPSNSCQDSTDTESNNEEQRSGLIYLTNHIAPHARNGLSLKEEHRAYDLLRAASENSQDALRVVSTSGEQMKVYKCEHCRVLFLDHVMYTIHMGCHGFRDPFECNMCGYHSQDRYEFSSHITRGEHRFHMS
# T2 sequence (Q96SW2 whole entry): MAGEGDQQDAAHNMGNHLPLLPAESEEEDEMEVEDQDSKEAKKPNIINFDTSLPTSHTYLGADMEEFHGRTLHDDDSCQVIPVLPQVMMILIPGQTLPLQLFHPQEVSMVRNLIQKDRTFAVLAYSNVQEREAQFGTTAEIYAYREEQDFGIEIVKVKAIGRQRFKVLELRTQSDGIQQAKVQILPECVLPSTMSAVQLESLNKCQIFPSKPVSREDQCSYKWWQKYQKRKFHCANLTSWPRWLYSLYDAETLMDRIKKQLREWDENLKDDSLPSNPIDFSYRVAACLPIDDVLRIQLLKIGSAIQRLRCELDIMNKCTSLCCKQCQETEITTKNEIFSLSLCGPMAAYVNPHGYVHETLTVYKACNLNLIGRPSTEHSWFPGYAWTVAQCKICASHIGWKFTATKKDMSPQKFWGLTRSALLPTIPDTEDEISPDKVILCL
# T2 sequence (Q16531 whole entry partner): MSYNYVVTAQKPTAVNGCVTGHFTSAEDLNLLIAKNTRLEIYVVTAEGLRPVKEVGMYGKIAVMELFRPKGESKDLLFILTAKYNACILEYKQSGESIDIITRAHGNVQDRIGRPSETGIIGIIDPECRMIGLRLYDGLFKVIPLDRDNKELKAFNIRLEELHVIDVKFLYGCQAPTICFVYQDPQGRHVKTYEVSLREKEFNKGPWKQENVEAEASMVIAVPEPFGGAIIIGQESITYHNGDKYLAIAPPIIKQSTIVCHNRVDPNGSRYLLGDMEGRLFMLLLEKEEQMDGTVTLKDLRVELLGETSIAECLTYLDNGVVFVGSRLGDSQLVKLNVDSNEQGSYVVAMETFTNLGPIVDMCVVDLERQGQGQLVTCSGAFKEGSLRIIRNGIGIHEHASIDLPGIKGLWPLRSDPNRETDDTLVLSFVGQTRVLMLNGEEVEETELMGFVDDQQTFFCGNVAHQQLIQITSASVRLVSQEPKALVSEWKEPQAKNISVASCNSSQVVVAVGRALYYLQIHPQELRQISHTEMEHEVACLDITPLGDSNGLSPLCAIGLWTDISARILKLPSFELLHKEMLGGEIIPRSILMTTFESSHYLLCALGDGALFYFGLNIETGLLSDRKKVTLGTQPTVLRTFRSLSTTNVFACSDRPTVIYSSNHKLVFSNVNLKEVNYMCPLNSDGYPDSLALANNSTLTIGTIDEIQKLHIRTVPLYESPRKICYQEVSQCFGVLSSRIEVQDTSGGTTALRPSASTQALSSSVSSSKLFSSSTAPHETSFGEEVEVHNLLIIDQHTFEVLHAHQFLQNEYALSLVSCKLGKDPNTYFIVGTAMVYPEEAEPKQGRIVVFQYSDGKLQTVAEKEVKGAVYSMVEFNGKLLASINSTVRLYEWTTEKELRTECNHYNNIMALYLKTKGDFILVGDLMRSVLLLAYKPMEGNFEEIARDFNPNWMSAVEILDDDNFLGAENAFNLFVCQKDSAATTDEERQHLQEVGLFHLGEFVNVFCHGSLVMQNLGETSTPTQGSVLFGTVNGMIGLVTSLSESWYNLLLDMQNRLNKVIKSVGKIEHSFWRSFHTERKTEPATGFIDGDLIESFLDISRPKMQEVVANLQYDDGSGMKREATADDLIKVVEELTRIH
# T1 sequence (P48729 whole entry): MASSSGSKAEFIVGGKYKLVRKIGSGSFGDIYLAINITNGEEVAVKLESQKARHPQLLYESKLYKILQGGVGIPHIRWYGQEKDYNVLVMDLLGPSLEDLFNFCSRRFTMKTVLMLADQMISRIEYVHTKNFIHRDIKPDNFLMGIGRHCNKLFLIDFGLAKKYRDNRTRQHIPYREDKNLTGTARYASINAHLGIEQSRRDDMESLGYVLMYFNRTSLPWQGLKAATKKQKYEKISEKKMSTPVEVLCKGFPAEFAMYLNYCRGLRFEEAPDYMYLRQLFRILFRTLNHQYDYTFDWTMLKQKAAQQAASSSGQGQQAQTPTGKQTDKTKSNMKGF
# T1 sequence (Q96SW2 whole entry): as the sequence (Q96SW2 whole entry) above
# T1 sequence (Q16531 whole entry partner): as the sequence (Q16531 whole entry partner) above
# T3 sequence (P15170 whole entry): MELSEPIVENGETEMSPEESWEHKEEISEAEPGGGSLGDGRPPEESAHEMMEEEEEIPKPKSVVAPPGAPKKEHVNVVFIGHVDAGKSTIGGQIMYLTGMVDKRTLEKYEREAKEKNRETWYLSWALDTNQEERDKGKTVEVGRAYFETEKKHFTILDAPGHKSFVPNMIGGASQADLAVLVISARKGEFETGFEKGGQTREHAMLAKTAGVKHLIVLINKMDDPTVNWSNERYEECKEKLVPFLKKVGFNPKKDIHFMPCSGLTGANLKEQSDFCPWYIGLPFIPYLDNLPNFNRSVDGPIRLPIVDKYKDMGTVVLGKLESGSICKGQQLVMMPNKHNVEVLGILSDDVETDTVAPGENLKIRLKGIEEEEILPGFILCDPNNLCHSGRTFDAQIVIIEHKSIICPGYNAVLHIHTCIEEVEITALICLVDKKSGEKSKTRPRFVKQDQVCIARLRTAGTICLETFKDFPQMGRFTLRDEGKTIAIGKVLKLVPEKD
# T3 sequence (Q96SW2 whole entry): as the sequence (Q96SW2 whole entry) above
# T3 sequence (Q16531 whole entry partner): as the sequence (Q16531 whole entry partner) above
Compound,fold induction at 10 µM (IL-2),inhibition at 10 µM (IL-6),viability at 10 µM (MOLM-13 cells),percent degradation at 1 µM (CK1α),inhibition at 10 µM (IL-1β),inhibition at 10 µM (TNFα),IKAROS % Degradation at 10 μM (IKAROS; 10 μM),GSPT1 % Degradation at 1 μM (GSPT1),IKAROS % degradation at 1 µM (IKAROS)
"CCN(CC)Cc1ccc(OCc2scc3c2CN([C@H]2CCC(=O)NC2=O)C3=O)cc1 [Compound 14, (S)-3-(1-((4-((diethylamino)methyl)phenoxy)methyl)-4-oxo-4H-thieno[3,4-c]pyrrol-5(6H)-yl)piperidine-2,6-dione]",2 to 3,< 50%,50 to 75%,50 to 75%,70 to 90%,70 to 90%,B (“B” represents a % degradation value of equal to or more than 25% and less than 50% (25%≤value<50%)),,
O=C1CCC(N2Cc3c(CCc4ccc(CN5CCOCC5)cc4)csc3C2=O)C(=O)N1 (centres unmarked) [Compound 4],2 to 3,,,25 to 50%,,,,B (“B” represents a % degradation value of equal to or more than 25% and less than 50% (25%≤value<50%)),25 to 50%
"O=C1CC[C@H](N2Cc3c(OCc4ccc(CN5CCOCC5)cc4)csc3C2=O)C(=O)N1 [Compound 2, (S)-3-(3-((4-(morpholinomethyl)benzyl)oxy)-6-oxo-4H-thieno[2,3-c]pyrrol-5(6H)-yl)piperidine-2,6-dione]",1 to 2,,,,< 50%,< 50%,,B (“B” represents a % degradation value of equal to or more than 25% and less than 50% (25%≤value<50%)),
"O=C1CC[C@H](N2Cc3c(csc3COc3ccc(CN4CCOCC4)cc3)C2=O)C(=O)N1 [Compound 1, (S)-3-(1-((4-(morpholinomethyl)phenoxy)methyl)-4-oxo-4H-thieno[3,4-c]pyrrol-5(6H)-yl)piperidine-2,6-dione]",1 to 2,50 to 70%,50 to 75%,≥ 75%,> 90%,,,C (“C” represents a % degradation value of equal to or more than 50% and less than 75% (50%≤value <75%)),≥ 75%
"O=C1CC[C@H](N2Cc3c(csc3COc3ccc(CN4CCCC4)cc3)C2=O)C(=O)N1 [Compound 13, (S)-3-(4-oxo-1-((4-(pyrrolidin-1-ylmethyl)phenoxy)methyl)-4H-thieno[3,4-c]pyrrol-5(6H)-yl)piperidine-2,6-dione]",2 to 3,50 to 70%,50 to 75%,50 to 75%,> 90%,> 90%,,,25 to 50%
"CC1COCC(C)N1Cc1ccc(OCc2scc3c2CN([C@H]2CCC(=O)NC2=O)C3=O)cc1 (stereo partly drawn) [Compound 19, (3S)-3-(1-((4-((3,5-dimethylmorpholino)methyl)phenoxy)methyl)-4-oxo-4H-thieno[3,4-c]pyrrol-5(6H)-yl)piperidine-2,6-dione]",≤ 1,< 50%,50 to 75%,≥ 75%,70 to 90%,70 to 90%,,C (“C” represents a % degradation value of equal to or more than 50% and less than 75% (50%≤value <75%)),50 to 75%
"CC1CN(Cc2ccc(OCc3scc4c3CN([C@H]3CCC(=O)NC3=O)C4=O)cc2)CC(C)O1 (stereo partly drawn) [Compound 17, (3S)-3-(1-((4-((2,6-dimethylmorpholino)methyl)phenoxy)methyl)-4-oxo-4H-thieno[3,4-c]pyrrol-5(6H)-yl)piperidine-2,6-dione]",1 to 2,< 50%,50 to 75%,≥ 75%,70 to 90%,> 90%,,,50 to 75%
